Assay results from patent US20180216060A1, “METHODS AND MEANS FOR THE MODIFICATION OF CELL SURFACES” (ACADEMISCH ZIEKENHUIS LEIDEN (ALSO ACTING UNDER THE NAME OF …, priority 2015, published 2018).
Where a SMILES comes first, the peptide text is derived from it. Bridges are numbered along the chain shown (N, C = ends). [ ]: non-standard residue; d: D form. The star is where a group is joined. Adamantane1carbonyl = O=C(C12CC3CC(CC(C3)C1)C2)*; 2Nal = N[C@@H](Cc1ccc2ccccc2c1)C(=O)O; Cit = NC(=O)NCCC[C@H](N)C(=O)O

Key:
[1] = Sensing: binding of functionalized cells to a glass slide coated with β-cyclodextrin; conditions: 1 h ligand incubation, 15 min on slide
Experimental: A glass slide was coated with β-cyclodextrin in a line of 400 micrometer wide. CXCR4 expressing cells (see previous examples) were incubated for 1 h with the ligand-guest compound Ac-TZ14011-Ad as discussed above and then added to the glass slide and incubated for 15 min. […] The conclusion of this experiment is that cells can be selectively found (and bound) within a solution by using the guest-host chemistry of the present invention. This enables one to purify (and at least to sense) particular types of cells within a solution and/or mixture of cells.

CXCR4 receptor = target: T1, CXCR4 receptor (Homo sapiens, UniProt P61073); test: Flow cytometry competition with Ac-TZ14011-MSAP to determine receptor affinity (KD); format: binding; conditions: competition with Ac-TZ14011-MSAP (250 nM), MDA-GFP-CXCR4+ cells
T1 construct: expressed in transfected cells; host or cells: MDA-MB-231 human breast cancer cells (MDA-GFP-CXCR4+), gift of Dr. Gary Luker
Source text: The necessity of a multivalent approach was studied by direct comparison between an entity comprising polymeric host functional groups (multivalent) and a monovalent host functional group. A genetically modified MDA-MB-231 human breast cancer cell line that has the Green Fluorescent Protein (GFP) directly coupled to the overexpressed CXCR4 receptor was used to study the interactions with CXCR4 positive cells. The CXCR4 chemokine receptor is over-expressed in the membrane of many human cancer cells, but CXCR4 also play a major role in the chemotaxis of stem cells. The cyclic peptide Ac-TZ14011 is often used to target this receptor and was also chosen here as the ligand. […] The binding strength between the receptor and the peptide was determined by competition with a previously reported modified Ac-TZ14011 derivative. […] The cells were then washed two times with 1% BSA in PBS, resuspended in 1% BSA in PBS and fluorescence of the reference compound was measured by using a BD FacsCanto™ II flow cytometer with APC-Cy7 settings. Live cells were gated on forward scatter and side scatter and 10000 viable cells were analyzed. […] The KD values were calculated by using the “Binding-Competitive, One site-Fit Ki” nonlinear regression equation of GraphPad Prism. […]
MDA-GFP-CXCR4+ cells were trypsinized (using 0.5% trypsin/EDTA, BD Biosciences) and counted. […]

T1 sequence (P61073 whole entry): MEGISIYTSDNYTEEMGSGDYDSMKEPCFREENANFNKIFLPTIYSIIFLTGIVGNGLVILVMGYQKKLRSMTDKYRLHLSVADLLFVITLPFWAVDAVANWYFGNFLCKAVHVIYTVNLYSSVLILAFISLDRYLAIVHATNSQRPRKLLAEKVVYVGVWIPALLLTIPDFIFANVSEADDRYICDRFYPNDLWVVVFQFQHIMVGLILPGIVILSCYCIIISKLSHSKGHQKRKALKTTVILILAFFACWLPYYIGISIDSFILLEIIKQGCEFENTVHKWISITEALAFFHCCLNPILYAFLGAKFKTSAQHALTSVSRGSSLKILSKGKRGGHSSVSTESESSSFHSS

**Q.** Which “attachment of functionalized cells to the cyclodextrin coated area” value [1] does the source give for CC(=O)N[C@@H](CCCNC(=N)N)C(=O)N[C@@H](CCCNC(=N)N)C(=O)N[C@@H](Cc1ccc2ccccc2c1)C(=O)N[C@H]1CSSC[C@@H](C(=O)N[C@@H](CCCNC(=N)N)C(N)=O)NC(=O)[C@H](CCCNC(N)=O)NC(=O)[C@H](CCCNC(=N)N)NC(=O)[C@H](Cc2ccc(O)cc2)NC(=O)[C@@H]2CCCN2C(=O)[C@@H](CCCCNC(=O)C23CC4CC(CC(C4)C2)C3)NC(=O)[C@H](CCCNC(=N)N)NC(=O)[C@H](CCCNC(N)=O)NC(=O)[C@H](Cc2ccc(O)cc2)NC1=O [Ac-TZ14011-Ad] (Ac-RR[2Nal]CY[Cit]R[dK](Adamantane1carbonyl)PYR[Cit]CR-NH2; disulfide 4-13) here?
**A.** preferentially attach

**Q.** And the Kd (CXCR4 receptor)?
**A.** 56 nM
